Measurements from patent US6962920B2, “Pyrimidine derivatives and methods of making and using these derivatives” (Duquesne University of the Holy Ghost, priority 1992, dated 2005).
Where two headings read alike, the source gives them in different places. Values belong to the compound of their own block, whether it stands above or below them.

Assays:
Tg DHFR = target: T1, Tg DHFR (Toxoplasma gondii, UniProt Q07422); assay: biochemical; type: biochemical; settings: for rl/tg: selectivity ratio; for Selectivity Ratio: RL DHFR/Tg: IC50 RL DHFR divided by IC50 Tg DHFR
T1 sequence (Q07422 1-610): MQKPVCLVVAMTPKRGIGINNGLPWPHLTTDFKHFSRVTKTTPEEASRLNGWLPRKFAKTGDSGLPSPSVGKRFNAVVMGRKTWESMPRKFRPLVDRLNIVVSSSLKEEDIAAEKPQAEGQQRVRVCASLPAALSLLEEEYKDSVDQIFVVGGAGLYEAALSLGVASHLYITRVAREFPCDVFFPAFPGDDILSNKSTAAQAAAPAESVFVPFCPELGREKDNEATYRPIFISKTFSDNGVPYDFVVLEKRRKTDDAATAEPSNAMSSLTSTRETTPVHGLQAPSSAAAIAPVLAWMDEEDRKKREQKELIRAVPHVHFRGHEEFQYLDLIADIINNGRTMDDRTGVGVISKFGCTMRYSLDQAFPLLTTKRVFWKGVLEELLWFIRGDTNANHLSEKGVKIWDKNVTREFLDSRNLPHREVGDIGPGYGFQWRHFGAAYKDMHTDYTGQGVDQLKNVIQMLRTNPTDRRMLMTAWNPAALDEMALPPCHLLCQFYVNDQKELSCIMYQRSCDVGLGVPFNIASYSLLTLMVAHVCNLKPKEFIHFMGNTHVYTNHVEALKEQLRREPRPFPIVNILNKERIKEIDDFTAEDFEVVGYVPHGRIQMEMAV
Method: (§1) The selectivity ratio is a measure of the selectivity of a compound for Pc DHFR or Tg DHFR and is expressed as the IC50 value of the DHFR from rate liver (RL) divided by the IC50 value of either the Pc DHFR or the Tg DHFR, depending on which organism the compounds are being tested against. For example, the selectivity ratio of a compound is calculated by the following formula: [formula]

RL DHFR = target: T2, RL DHFR (Rattus norvegicus, UniProt Q920D2); assay: Inhibition of DHFR from rat liver; type: biochemical
T2 construct: Toxoplasmosis gondii (Tg) and rat liver (RL); from tissue; host or cells: rat liver
T2 sequence (Q920D2 1-187): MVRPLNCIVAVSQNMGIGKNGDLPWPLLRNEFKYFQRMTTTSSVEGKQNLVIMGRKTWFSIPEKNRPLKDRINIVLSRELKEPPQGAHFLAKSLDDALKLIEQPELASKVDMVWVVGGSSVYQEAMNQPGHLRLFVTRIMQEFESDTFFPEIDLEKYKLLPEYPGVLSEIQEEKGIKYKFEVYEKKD
Method: as §1

Pc DHFR [1] = target: T3, Pc DHFR (Pneumocystis carinii, UniProt P16184); assay: biochemical
T3 sequence (P16184 1-206): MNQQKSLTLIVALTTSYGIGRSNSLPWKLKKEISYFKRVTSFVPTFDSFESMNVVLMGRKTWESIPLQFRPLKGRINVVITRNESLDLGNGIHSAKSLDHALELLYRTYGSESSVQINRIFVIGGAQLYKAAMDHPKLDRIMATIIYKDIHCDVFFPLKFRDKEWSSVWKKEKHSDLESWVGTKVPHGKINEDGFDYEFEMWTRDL

[2] = target: E-coli thymidylate synthase (ecTS) (Escherichia coli, UniProt P0A884); assay: Inhibition of E. coli thymidylate synthase; type: biochemical; settings: for % in parentheses after the > value, ecTS: Table 22, at the concentration given
Sequence of E-coli thymidylate synthase (ecTS) (P0A884 whole entry): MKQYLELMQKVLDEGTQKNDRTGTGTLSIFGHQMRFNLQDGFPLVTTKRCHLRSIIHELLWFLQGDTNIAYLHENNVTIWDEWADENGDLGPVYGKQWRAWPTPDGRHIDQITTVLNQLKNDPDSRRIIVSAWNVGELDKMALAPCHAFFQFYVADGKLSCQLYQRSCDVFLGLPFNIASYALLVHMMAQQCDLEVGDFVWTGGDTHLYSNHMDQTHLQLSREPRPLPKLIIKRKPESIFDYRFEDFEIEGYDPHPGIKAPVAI
Method: All of the compounds were tested against human cells, L. casei, E. coli, and S. faecium.

Pc DHFR [3] = target: T3, Pc DHFR; type: biochemical; settings: for Selectivity ratio rl/pc: IC50 rlDHFR/IC50 pcDHFR
Method: as §1

[4] = Table 16, read-out: Tg DHFR IC50
[5] = Table 25, read-out: Inhibitor Concentrations (IC50) tgDHFR
[6] = Table 16, read-out: RL DHFR IC50
[7] = Table 25, read-out: Inhibitor Concentrations (IC50) rlDHFR
[8] = Table 16, read-out: Pc DHFR IC50
[9] = Table 25, read-out: Inhibitor Concentrations (IC50) pcDHFR
[10] = Table 22, read-out: tgDHFR IC50
[11] = Table 22, read-out: rlDHFR IC50
[12] = Table 22, read-out: pcDHFR IC50
[13] = Table 7, read-out: Tg DHFR IC50
[14] = Table 7, read-out: RL DHFR IC50
[15] = Table 7, read-out: Pc DHFR IC50
[16] = Table 7, IC50 RL DHFR divided by IC50 Pc DHFR

IC50 (RL DHFR; [6]): > 12 µM
IC50 (RL DHFR; [7]): > 12 µM
IC50 (Pc DHFR [1]; [8]): > 12 µM
IC50 (Pc DHFR [1]; [9]): > 12 µM
SMILES: Nc1nc(N)c2c(CNc3ccccc3Oc3ccccc3)coc2n1 [Compound 165, 2,4-Diamino-5-[(2′-phenoxyanilino)methyl]furo[2,3-d]pyrimidine]
IC50 (Tg DHFR; [4]): > 12 µM
IC50 (Tg DHFR; [5]): > 12 µM

SMILES: Nc1nc(O)c2c(CNc3cccc(Cl)c3)c[nH]c2n1 [Compound 415]
IC50 (Tg DHFR; [10]): 3.5 µM
rl/tg (Tg DHFR; Table 22): >7
IC50 (RL DHFR; [11]): > 26 µM
IC50 [2]: > 180 µM
% in parentheses after the > value, ecTS [2]: 26%
IC50 (Pc DHFR [1]; [12]): > 26 µM

SMILES: CCOc1ccc(OCC)c(NCc2c[nH]c3nc(N)nc(N)c23)c1 [Compound 5, 2,4-diamino-5-[(2′,5′-diethoxyanilino)methyl]pyrrolo[2,3-d]pyrimidine]
IC50 (Tg DHFR; [13]): 5.3 µM
IC50 (RL DHFR; [14]): 70 µM
IC50 (Pc DHFR [1]; [15]): > 21 µM

IC50 (RL DHFR; [14]): 156 µM
SMILES: COc1ccc(OC)c(NCc2cnc3[nH]c(N)nc(N)c2-3)c1 [Compound 4, 2,4-diamino-5-[(2′,5′-dimethoxyanilino)methyl]pyrrolo[2,3-d]pyrimidine]
IC50 (Tg DHFR; [13]): 1.7 µM

IC50 (RL DHFR; [7]): 12.3 µM
IC50 (Pc DHFR [1]): 0.66 µM
IC50 (Pc DHFR [1]; [8]): 0.65 µM
IC50 (Pc DHFR [1]; [9]): 0.65 µM
SMILES: Nc1nc(N)c2c(CSc3ccc4ccccc4c3)coc2n1 [Compound 161, 2,4-Diamino-5-[(2-naphthylthio)methyl]furo[2,3-d]pyrimidine]

IC50 (RL DHFR; [6]): 187 µM
SMILES: Nc1nc(N)c2c(CNc3ccccc3-c3ccccc3)coc2n1 [Compound 167, 2,4-Diamino-5-[(2′-phenylanilino)methyl]furo[2,3-d]pyrimidine]

SMILES: COc1ccc(NCc2c[nH]c3nc(N)nc(N)c23)cc1 [Compound 3, 2,4-diamino-5-[(4′-methoxyanilino)methyl]pyrrolo[2,3-d]pyrimidine]
Selectivity Ratio: RL DHFR/Pc DHFR (Pc DHFR [3]; [16]): 0.23
Selectivity Ratio: RL DHFR/Tg (Tg DHFR; Table 7): 10.5
IC50 (Tg DHFR; [13]): 6 µM
IC50 (RL DHFR; [14]): 63 µM
IC50 (Pc DHFR [1]; [15]): 279 µM

SMILES: Nc1nc(N)c2c(CNc3ccc(Cl)c(Cl)c3)c[nH]c2n1 [Compound 6, 2,4-diamino-5-[(3′,4′dichloroanilino)methyl]pyrrolo[2,3-d]pyrimidine]
IC50 (Tg DHFR; [13]): 1.4 µM
IC50 (RL DHFR; [14]): 14.4 µM
IC50 (Pc DHFR [1]; [15]): 35.3 µM

SMILES: Nc1nc(N)c2c(CNc3ccccc3)cnc-2[nH]1 [Compound 8, 2,4-diamino-5-(anilinomethyl)pyrrolo[2,3-d]pyrimidine]
Selectivity Ratio: RL DHFR/Tg (Tg DHFR; Table 7): >65
IC50 (Tg DHFR; [13]): 3.9 µM
IC50 (RL DHFR; [14]): > 252 µM
Selectivity Ratio: RL DHFR/Pc DHFR (Pc DHFR [1]; [16]): >1
IC50 (Pc DHFR [1]; [15]): 252 µM

IC50 (Pc DHFR [1]; [8]): 284 µM
IC50 (Pc DHFR [1]; [9]): 284 µM
SMILES: CN(Cc1coc2nc(N)nc(N)c12)c1cc(Cl)c(Cl)c(Cl)c1 [Compound 172, 2,4-Diamino-5-[(N-methyl-3′,4′,5′-trichloroanilino)methyl]furo[2,3-d]-pyrimidine]

SMILES: Nc1nc(N)c2c(CNc3cccc4ccccc34)coc2n1 [Compound 162, 2,4-Diamino-5-[(1-naphthylamino)methyl]furo[2,3-d]pyrimidine]
IC50 (Tg DHFR; [5]): 37 µM
IC50 (Pc DHFR [1]; [8]): 13.5 µM
IC50 (Pc DHFR [1]; [9]): 13.5 µM

SMILES: COc1ccc(NCc2c[nH]c3nc(N)[nH]c(=O)c23)c(OC)c1 [Compound 410]
IC50 (Tg DHFR; [10]): 7.1 µM
rl/tg (Tg DHFR; Table 22): >1.4
IC50 (RL DHFR; [11]): > 16 µM
IC50 [2]: > 160 µM
% in parentheses after the > value, ecTS [2]: 8%
IC50 (Pc DHFR [1]; [12]): > 16 µM

SMILES: Nc1nc(N)c2c(COc3ccc4ccccc4c3)coc2n1 [Compound 164, 2,4-Diamino-5-[(2-naphthoxy)methyl]furo[2,3-d]pyrimidine]
Selectivity ratio rl/pc (Pc DHFR [3]): 4.31
Selectivity Ratio RL/Pc (Pc DHFR [3]; Table 16): 4.31
IC50 (Tg DHFR; [4]): > 42 µM
IC50 (Tg DHFR; [5]): > 42 µM
IC50 (RL DHFR; [7]): 60.3 µM
IC50 (Pc DHFR [1]; [8]): 14 µM
IC50 (Pc DHFR [1]; [9]): 14 µM

SMILES: CCOc1cc(Cc2cnc(N)nc2N)cc(OCC)c1-n1cccc1 [epiroprim, reference compound]
Selectivity ratio rl/pc (Pc DHFR [3]): 12.8
Selectivity ratio rl/tg (Tg DHFR; IC50 rlDHFR/IC50 tgDHFR): 70.6
IC50 (Tg DHFR; [5]): 0.48 µM
